Measured values as given in paper PMC5116089, “Sulfheme formation during homocysteine S-oxygenation by catalase in cancers and neurodegenerative diseases” (Nature Communications, 2016).

Legend:
Bovine liver catalase = target: T1, Bovine liver catalase (Bos taurus, UniProt P00432); test: Comparative kinetic studies by ultraviolet-visible spectroscopy (compound II and Fe(II) sulfonium formation); assay type: biochemical; conditions: CAT + 2 mM HCys, 1 mM DTPA, pH 7.4, with the additive named (dimedone 4 mM, BCN 0.1 mM, SOD 40 U)
T1 construct: Bovine liver catalase was also purchased from Sigma-Aldrich; purchased Sigma-Aldrich; host or cells: bovine liver
T1 sequence (P00432 2-527 limits assumed): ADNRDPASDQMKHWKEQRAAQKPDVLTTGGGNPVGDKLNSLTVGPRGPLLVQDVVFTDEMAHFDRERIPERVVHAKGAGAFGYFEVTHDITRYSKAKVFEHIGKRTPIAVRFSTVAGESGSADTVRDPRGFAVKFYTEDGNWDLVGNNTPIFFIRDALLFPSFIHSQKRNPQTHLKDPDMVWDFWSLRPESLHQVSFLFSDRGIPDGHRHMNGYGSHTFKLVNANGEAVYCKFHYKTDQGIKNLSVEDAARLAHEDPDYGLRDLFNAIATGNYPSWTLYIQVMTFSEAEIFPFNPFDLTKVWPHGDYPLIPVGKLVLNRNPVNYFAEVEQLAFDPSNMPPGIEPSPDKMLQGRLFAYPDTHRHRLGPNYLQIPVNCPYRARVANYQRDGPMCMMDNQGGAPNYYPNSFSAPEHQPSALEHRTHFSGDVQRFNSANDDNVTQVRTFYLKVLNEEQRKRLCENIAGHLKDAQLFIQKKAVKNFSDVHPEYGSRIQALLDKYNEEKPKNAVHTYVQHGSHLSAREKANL
Description: Ultraviolet–visible spectra were recorded on a Cary 300 Scan or an Uvikon 941 spectrophotometer equipped with a temperature equilibrating water bath (±1 °C). Spectral changes over time were recorded when CAT was incubated with L-HCys (0.2 or 2 mM), L-Cys (0.2, 2 or 9 mM) or GSH (1 or 30 mM) at 25 °C in a 1 ml quartz cuvette containing a solution of CAT (2.7–5.9 μM) in 50 mM KPi, pH 7.4±1 mM DTPA. Due to half-site reactivity of biological thiols with CAT, the data were recorded versus a blank containing half the concentrations of CAT used in the experiments, that is, a solution of 1.35–2.95 μM CAT in 50 mM KPi at pH 7.4±1 mM DTPA. Reactions were initiated by addition of the thiol-containing compounds. Comparative kinetic studies were performed by incubating CAT ([…] in the experiment, 1.35–1.5 μM in the blank) with 2 mM L-HCys in 50 mM KPi, pH 7.4, 1 mM DTPA with or without […], 5,5-dimethyl-1,3-cyclohexanedione (dimedone, 4 mM), BCN (0.1 mM) or SOD, 40 U). All the experiments were performed at least in duplicate.

HT-29 Glc−/+ cells = test: H2O2 consumption in cell lysates as a function of NaSH concentration; assay type: biochemical, human; conditions: HT-29 Glc−/+ cell lysate (control line); read-out: relative IC50 (rate of H2O2 consumption)
Description: (§1) CAT activity was measured on an Uvikon 941 spectrophotometer equipped with a temperature controlled water bath (±1 °C) by following the disappearance of H2O2 at 240 nm over 30–120 s at 25 °C. Catalase activity was calculated based on the rate of decomposition of hydrogen peroxide, which is proportional to the reduction of the absorbance at 240 nm. Experiments were carried out in a 3 ml quartz cuvette containing 11.7 mM H2O2 in 50 mM KPi, pH 7.4±1 mM DTPA and the reaction was initiated by adding 0.3–0.6 pmoles of CAT. The effect of biological thiols on the activity of CAT under physiological conditions was determined from a solution of CAT (30–60 nM) preincubated at 25 °C for at least 120 min as a function thiol concentration (0–40 mM for HCys and Cys, 0–100 mM for GSH) in 50 mM KPi, pH 7.4, 1 mM DTPA. Control experiments (biological thiols alone) were also performed in parallel. In each case, 10 μl of the reaction mixture (biological thiols±CAT) was added to the cuvette containing the H2O2 solution to initiate the reaction. Similarly, the effect of biological thiols on the activity of CAT under pathological conditions was determined from a solution of CAT (30–60 nM) containing a 2.124±0.386 molar excess of iron that was preincubated with various concentrations of thiols (0–1 mM) for at least 120 min at 25 °C in 50 mM KP at pH 7.4. The relative half inhibitory concentration (IC50) values were obtained by plotting the relative activity of CAT (A, in per cent) as a function of the concentration of thiol-compounds (RSH) and by fitting the data with the following four parameter logistic equation: A=Amin+(Amax−Amin)/(1+([RSH]/IC50)^n), where Amax is the maximal activity of CAT (constrained at 100%), Amin is the minimum activity achieved at saturating concentration of RSH and n is the Hillslope that characterizes the slope of the curve at its midpoint. The inactivation rate (kinact, min^−1) was extracted from the time course of the inactivation of CAT bioactivity using a fixed concentration of HCys. Accordingly, a solution of CAT (3.5–5 μM) was incubated with 2 mM L-HCys in 50 mM KPi, pH 7.4, 1 mM DTPA. Aliquots (10 μl) were taken at intervals (0–480 min), diluted 1:50 in 50 mM KPi, pH 7.4, 1 mM DTPA and assayed for CAT activity as described above. […] The effect of NaSH on the consumption of H2O2 in cell lysates was determined from a solution of cell lysates (0.5–3 mg ml^−1) incubated on ice with various concentrations of NaSH (0–200 μM). […]

HCT-116 cells = test: as above; assay type: biochemical, human; conditions: HCT-116 cell lysate; read-out: relative IC50 (rate of H2O2 consumption)
Description: as §1

MDST8 cells = test: as above; assay type: biochemical, human; conditions: MDST8 cell lysate; read-out: relative IC50 (rate of H2O2 consumption)
Description: as §1

HCT-15 cells = test: as above; assay type: biochemical, human; conditions: HCT-15 cell lysate; read-out: relative IC50 (rate of H2O2 consumption)
Description: as §1

Ultraviolet–visible spectroscopy kobs(6) (CAT–Fe(IV)=O formation) (Bovine liver catalase)	Compound	IC50 (HT-29 Glc−/+ cells)	IC50 (HCT-116 cells)	IC50 (MDST8 cells)	IC50 (HCT-15 cells)
0.026 ± 0.003 min⁻¹	NC(CCS)C(=O)O (centres unmarked) [HCys, homocysteine]	–	–	–	–
–	[Na+].[SH-] [NaSH]	15 ± 5.3 µM	1.8 ± 1.5 µM	20.4 ± 4 µM	5.8 ± 1.8 µM
